“And” between values parts separate entries of the source, which are not always exact repeats. Identical values can stand only once. Toxic doses and inconclusive results are not listed. Numbered stars: 1 amine (or outer) side, 2 acyl side, 3 side chain; on linkers, the order of the positions; unused ones are H or OH. Bridge positions count the residues as written; N and C are the ends. Square brackets hold non-standard residues; d marks the D form. Peptide text beside a SMILES is read from it. I, II: the chains in the order shown. Actinocin(9to1) = Cc1c2oc3c(C)ccc(C(=O)[*:1])c3nc-2c(C(=O)[*:2])c(N)c1=O; NMeV = CN[CH](C(=O)O)C(C)C; Sar = CNCC(=O)O
Test system: P388 leukemia ip, CD2F1 mice, survival T/C
Assay: NCI In Vivo Anticancer Drug Screen. Data for tumor model P388 Leukemia (intraperitoneal) in CD2F1 (CDF1) mice
Conditions: endpoint: median survival time, higher = longer survival
Method in brief: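 Mice carrying the transplanted tumor received test compound or vehicle. Survival was recorded in each group, and the value is the treated-group measurement divided by that of the vehicle-treated control group.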

## O=C1OCCOCCOCCOCCOC(=O)c2cncc1c2
dose: 100.0 mg/kg/injection, schedule: Q01DX001 (ip), vehicle: Klucel (hydroxypropylcellulose) (HPC)
  T/C: 101 % of control
dose: 200.0 mg/kg/injection, schedule: Q01DX001 (ip), vehicle: Klucel (hydroxypropylcellulose) (HPC)
  T/C: 108 % of control
dose: 400.0 mg/kg/injection, schedule: Q01DX001 (ip), vehicle: Klucel (hydroxypropylcellulose) (HPC)
  T/C: 105 % of control

## Cc1c2oc3c(C)ccc(C(=O)NC4C(=O)NC(C(C)C)C(=O)N5CCCC5C(=O)N(C)CC(=O)N(C)C(C(C)C)C(=O)OC4C)c3nc-2c(C(=O)NC2C(=O)NC(C(C)C)C(=O)N3CCCC3C(=O)N(C)CC(=O)N(C)C(C(C)C)C(=O)OC2C)c(N)c1=O (stereo not drawn) (I: TVP[Sar][NMeV] / II: TVP[Sar][NMeV]; ester I:1-I:C, II:1-II:C; linker I:N-II:N via Actinocin(9to1); configuration not given here)
dose: 0.1 mg/kg/injection, schedule: Q01DX009 (ip), vehicle: distilled water + Tween-80
  T/C: 178 % of control
dose: 0.2 mg/kg/injection, schedule: Q01DX009 (ip), vehicle: distilled water + Tween-80
  T/C: 190 % of control
dose: 0.2 mg/kg/injection, schedule: Q01DX009 (ip), vehicle: water
  T/C: 151 % of control
dose: 0.4 mg/kg/injection, schedule: Q01DX009 (ip), vehicle: distilled water + Tween-80
  T/C: 207 % of control
dose: 0.4 mg/kg/injection, schedule: Q01DX009 (ip), vehicle: water
  T/C: 174 % of control

## CCCCNC(=O)C(N)CON (stereo not drawn)
dose: 50.0 mg/kg/injection, schedule: Q01DX005 (ip), vehicle: saline
  T/C: 106 % of control
dose: 100.0 mg/kg/injection, schedule: Q01DX005 (ip), vehicle: saline
  T/C: 113 % of control
dose: 200.0 mg/kg/injection, schedule: Q01DX005 (ip), vehicle: saline
  T/C: 106 % of control

## NNC(=O)c1ccccc1Cl
dose: 6.25 mg/kg/injection, schedule: Q01DX009 (ip), vehicle: Klucel (hydroxypropylcellulose) (HPC)
  T/C: 97 % of control
dose: 6.25 mg/kg/injection, schedule: Q01DX009 (ip), vehicle: saline
  T/C: 100 % of control
dose: 12.5 mg/kg/injection, schedule: Q01DX009 (ip), vehicle: Klucel (hydroxypropylcellulose) (HPC)
  T/C: 96 % of control
dose: 12.5 mg/kg/injection, schedule: Q01DX009 (ip), vehicle: saline
  T/C: 100 % of control
dose: 25.0 mg/kg/injection, schedule: Q01DX009 (ip), vehicle: Klucel (hydroxypropylcellulose) (HPC)
  T/C: 100 % of control

## O=C1C=C/C(=C\c2cccc(Cl)c2)O1
dose: 100.0 mg/kg/injection, schedule: Q01DX002 (ip), vehicle: Klucel (hydroxypropylcellulose) (HPC)
  T/C: 103 % of control
dose: 200.0 mg/kg/injection, schedule: Q01DX002 (ip), vehicle: Klucel (hydroxypropylcellulose) (HPC)
  T/C: 107 % of control
dose: 400.0 mg/kg/injection, schedule: Q01DX002 (ip), vehicle: Klucel (hydroxypropylcellulose) (HPC)
  T/C: 103 % of control

## COc1cc(C[C@@H]([C@@H](CO)Cc2ccc3c(c2)OCO3)[C@H](O)CO)cc(OC)c1OC
dose: 6.25 mg/kg/injection, schedule: Q04DX002 (ip), vehicle: acetone
  T/C: 103 % of control
dose: 12.5 mg/kg/injection, schedule: Q04DX002 (ip), vehicle: acetone
  T/C: 100 % of control
dose: 25.0 mg/kg/injection, schedule: Q04DX002 (ip), vehicle: acetone
  T/C: 100 % of control

## CNc1nc(SC)nc2c1ncn2C1CCCO1 (stereo not drawn)
dose: 100.0 mg/kg/injection, schedule: Q04DX002 (ip), vehicle: saline with Tween-80
  T/C: 98 % of control
dose: 200.0 mg/kg/injection, schedule: Q04DX002 (ip), vehicle: saline with Tween-80
  T/C: 95 % of control
dose: 400.0 mg/kg/injection, schedule: Q04DX002 (ip), vehicle: saline with Tween-80
  T/C: 95 % of control

## CC(=O)OC1C[C@@](C)(O)[C@@]23O[C@@H]2[C@@H]2O[C@]2(C)C3C2OC(=O)C(C)[C@H]12 (stereo partly drawn)
dose: 937.5 micrograms/kg/injection, schedule: Q01DX005 (ip), vehicle: Klucel (hydroxypropylcellulose) (HPC)
  T/C: 98 % of control
dose: 1875.0 micrograms/kg/injection, schedule: Q01DX005 (ip), vehicle: Klucel (hydroxypropylcellulose) (HPC)
  T/C: 100 % of control
dose: 3750.0 micrograms/kg/injection, schedule: Q01DX005 (ip), vehicle: Klucel (hydroxypropylcellulose) (HPC)
  T/C: 100 % of control
dose: 7500.0 micrograms/kg/injection, schedule: Q01DX005 (ip), vehicle: Klucel (hydroxypropylcellulose) (HPC)
  T/C: 97 % of control

## CC1C=CCC2C(=O)c3cccc([N+](=O)[O-])c3C(=O)C12 (stereo not drawn)
dose: 50.0 mg/kg/injection, schedule: Q01DX005 (ip), vehicle: Klucel (hydroxypropylcellulose) (HPC)
  T/C: 100 % of control
dose: 100.0 mg/kg/injection, schedule: Q01DX005 (ip), vehicle: Klucel (hydroxypropylcellulose) (HPC)
  T/C: 96 % of control
dose: 200.0 mg/kg/injection, schedule: Q01DX005 (ip), vehicle: Klucel (hydroxypropylcellulose) (HPC)
  T/C: 92 % of control

## O=C1CCCC(O)=C1[Se]C1=C(O)CCCC1=O
dose: 6.25 mg/kg/injection, schedule: Q01DX001 (ip), vehicle: saline
  T/C: 103 % of control
dose: 12.5 mg/kg/injection, schedule: Q01DX001 (ip), vehicle: saline
  T/C: 101 % of control
dose: 25.0 mg/kg/injection, schedule: Q01DX001 (ip), vehicle: saline
  T/C: 101 % of control

## C[n+]1ccc(CCNC2CCC(N=NC3CCC([N+](=O)[O-])CC3)CC2)cc1 (stereo not drawn)
dose: 50.0 mg/kg/injection, schedule: Q01DX009 (ip), vehicle: saline
  T/C: 105 % of control and 92 % of control
dose: 100.0 mg/kg/injection, schedule: Q01DX009 (ip), vehicle: saline
  T/C: 108 % of control
dose: 200.0 mg/kg/injection, schedule: Q01DX009 (ip), vehicle: saline
  T/C: 102 % of control and 118 % of control
